Reference: PMC10745867, “Biotransformation of Ursonic Acid by Aspergillus ochraceus and Aspergillus oryzae to Discover Anti-Neuroinflammatory Derivatives” (Molecules, 2023)
“Also recorded” adds a separate entry of the source.

Key:
[1] = tested on: NO production induced by LPS in BV-2 cells; experiment: Inhibition of LPS-induced NO production in BV-2 cells (Griess method); format: cell-based; conditions: for IC50: BV-2 cells, 100 ng/mL LPS, 48 h, Griess reaction, mean ± SD, n = 3; for Suppression of NO generation (result in words): LPS-triggered BV-2 cells, Griess method
Protocol: To assess the potential capabilities of all modified products in counteracting neuroinflammation, we measured their suppressive effects on NO generation within LPS-triggered BV-2 cells using the Griess method.
(§1) NO production was assessed indirectly using the Griess reaction by measuring nitrite concentration in a culture medium. BV-2 cells were cultured in Dulbecco’s Modified Eagle Medium, supplemented with 10% FBS, 100 units/mL of penicillin, and 100 μg/mL of streptomycin. These cells were seeded in 96-well plates at a density of 8 × 10^4 cells/well and incubated for 24 h. Post incubation, they were exposed to 100 ng/mL of LPS alongside different compound concentrations for 48 h. A mixture of 100 μL culture supernatant and Griess reagent was left at room temperature for 10 min, with absorbance later read at 570 nm. L-NMMA served as the positive control. Cell viability was determined using the MTT assay, and experiments were conducted in triplicate. The IC50 for NO production inhibition was computed using GraphPad Prism 7.00 software.

[2] = Cell viability of BV-2 cells (MTT assay); format: cell-based; parameters: concentration or dose not given beside the values; conditions: mouse, mean ± SD, n = 3
Protocol: as §1

| SMILES | IC50 ([1]; Mus musculus, BV-2, 48 h) | melting point | IC50 [1] | viability at 48 h [2] | Suppression of NO generation (result in words) [1] |
| --- | --- | --- | --- | --- | --- |
| C[C@H]1[C@H](C)C2C3=CCC4[C@@]5(C)CCC(=O)C(C)(C)C5C[C@H](O)[C@@]4(C)[C@]3(C)CC[C@@]2(C(=O)O)C[C@@H]1O (stereo partly drawn) [Compound 3, 3-oxo-7β,21β-dihydroxy-12-en-28-oic acid] | 20.9 ± 2.13 µM | – | – | 100 ± 3.92% | – |
| C[C@H]1[C@H](C)C2C3=CCC4[C@@]5(C)CCC(=O)C(C)(C)C5CC[C@@]4(C)[C@]3(C)CC[C@@]2(C(=O)O)C[C@@H]1O (stereo partly drawn) [Compound 2, 3-oxo-21β-hydroxy-12-en-urs-28-oic acid] | 38.2 ± 4.09 µM | – | – | 101 ± 2.45% | – |
| C[C@H]1[C@H](C)CC[C@]2(C(=O)O)CC[C@]3(C)C(=CC[C@@H]4[C@@]5(C)CCC(=O)C(C)(C)[C@@H]5CC[C@]43C)[C@H]12 [Compound 1, Ursonic acid] | 84.7 ± 3.22 µM | – | – | 98.8 ± 3.61% | – |
| C[C@@H]1CC[C@]2(C(=O)O)CC[C@]3(C)C(=CC(=O)C4[C@@]5(C)CCC(=O)C(C)(C)C5CC[C@]43C)C2[C@H]1C (stereo partly shown) [Compound 6, 3,11-dioxo-12-en-urs-28-oic acid] | 50.2 ± 3.16 µM | – | – | 105 ± 4.23% | – |
| C[C@@H]1C(=O)C[C@]2(C(=O)O)CC[C@]3(C)C(=CCC4[C@@]5(C)CCC(=O)C(C)(C)C5CC[C@]43C)C2[C@H]1C (stereo partly shown) [Compound 4, 3,21-dioxo-urs-12-en-28-oic acid] | > 100 µM | – | – | 104 ± 3.18% | did not showcase any suppression capabilities |
| COC1C=C2C3C(C)C(C)C(O)CC3(C(=O)O)CCC2(C)C2(C)CCC3C(C)(C)C(=O)CCC3(C)C12 (stereo not drawn) [Compound 7, 3-oxo-11α-methoxy-21β-hydroxy-urs-12-en-28-oic acid] | 11.6 ± 2.01 µM | 268 to 271 °C | – | 99.2 ± 3.72% | – |
| CC1C(O)CC23CCC4(C)C5(C)CCC6C(C)(C)C(=O)CCC6(C)C5C=CC4(OC2=O)C3C1C (stereo not drawn) [Compound 8, 3-oxo-21β-hydroxy-urs-11-en-13β,28β-lactone] | > 100 µM | 245 to 247 °C | – | 102 ± 3.54% | did not showcase any suppression capabilities; also recorded: did not exhibit any inhibitory activities |
| CC1C(=O)CC2(C(=O)O)CCC3(C)C(=CCC4C5(C)CCC(=O)C(C)(C)C5CC(O)C43C)C2C1C (stereo not drawn) [Compound 5, 3,21-dioxo-7β-hydroxy-urs-12-en-28-oic acid] | 52.8 ± 3.34 µM | 251 to 254 °C | – | 101 ± 4.11% | – |

Now from value to compound, other results behind:

| IC50 ([1]; Mus musculus, BV-2, 48 h) | melting point | IC50 [1] | SMILES | viability at 48 h [2] | Suppression of NO generation (result in words) [1] |
| --- | --- | --- | --- | --- | --- |
| 8.2 µM | 284 to 288 °C | 8.23 ± 2.61 µM | COC1=CCC2(C)C(CCC3(C)C2CC=C2C4C(C)C(C)CCC4(C(=O)O)CCC23C)C1(C)C (stereo not shown) [Compound 10, 3-methoxy-urs-2,12-dien-28-oic acid] | 104 ± 4.05% | – |
| 36.6 ± 2.33 µM | 270 to 274 °C | – | CC1C(O)CC23CCC4(C)C5(C)C(O)CC6C(C)(C)C(=O)CCC6(C)C5C5OC5C4(OC2=O)C3C1C (stereo not drawn) [Compound 15, 3-oxo-7α,21β-dihydroxyl-11β,12β-epoxyl-urs-13β,28β-lactone] | 102 ± 3.18% | – |
| 15.2 ± 3.07 µM | 257 to 263 °C | – | CC1C(O)CC23CCC4(C)C5(C)CCC6C(C)(C)C(=O)CCC6(C)C5C5OC5C4(OC2=O)C3C1C (stereo not drawn) [Compound 13, 3-oxo-21β-hydroxyl-11β,12β-epoxyl-urs-13β,28β-lactone] | 103 ± 3.59% | – |
| 5.3 µM | 282 to 284 °C | 5.25 ± 3.19 µM | CC1=C2C(C3OC3C34OC(=O)C5(CCC23C)CC(O)C(C)C(C)C54)C2(C)CCC(=O)C(C)(C)C2C1 (stereo not drawn) [Compound 19, 3-oxo-21β-hydroxyl-7-methyl-11β,12β-epoxyl-7-ene-26-norurs-13β,28β-lactone] | 103 ± 3.03% | – |
| 6.9 µM | 268 to 273 °C | 6.86 ± 3.52 µM | C[C@H]1[C@H](C)C2[C@@]3(CC[C@@]4(C)[C@@]5(C)C([C@H]6O[C@H]6[C@]24OC3=O)[C@@]2(C)CCC(=O)C(C)(C)C2C[C@@H]5O)C[C@@H]1O (stereo partly drawn) [Compound 16, 3-oxo-7β,21β-dihydroxyl-11β,12β-epoxyl-urs-13β,28β-lactone] | 97.8 ± 4.75% | – |
| 31.1 ± 3.98 µM | – | – | C[C@@H]1CC[C@]2(C(=O)O[C@@H]3O[C@H](CO)[C@@H](O)[C@H](O)[C@H]3O)CC[C@]3(C)C(=CCC4[C@@]5(C)CCC(=O)C(C)(C)C5CC[C@]43C)C2[C@H]1C (stereo partly drawn) [Compound 12, ursonic acid-28-O-β-D-glucopyranosyl ester] | 98.2 ± 4.37% | – |
| 22.6 ± 3.44 µM | 278 to 280 °C | – | CC1C(O)CC23CCC4(C)C5(C)CCC6C(C)(C)C(=O)CC(O)C6(C)C5C5OC5C4(OC2=O)C3C1C (stereo not drawn) [Compound 14, 3-oxo-1β,21β-dihydroxyl-11β,12β-epoxyl-urs-13β,28β-lactone] | 104 ± 4.92% | – |
| 40.8 ± 3.26 µM | 247 to 249 °C | – | CC1C(=O)CC23CCC4(C)C5(C)C(O)CC6C(C)(C)C(=O)CCC6(C)C5C5OC5C4(OC2=O)C3C1C (stereo not drawn) [Compound 17, 3,21-dioxo-7β-hydroxyl-11β,12β-epoxyl-urs-13β,28β-lactone] | 100 ± 3.54% | – |
| 28.2 ± 2.97 µM | – | – | [H]/N=C(/NC)NCCC[C@H](N)C(=O)O [L-NMMA, reference compound] | 101 ± 4.36% | – |
| 42.5 ± 3.7 µM | – | – | C[C@@H]1CC[C@]2(C(=O)O)CC[C@]3(C)C(=CCC4[C@@]5(C)CCC(=O)C(C)(C)C5CC[C@]43C)C2[C@]1(C)O (stereo partly drawn) [Compound 11, 3-oxo-19α-hydroxy-12-en-urs-28-oic acid] | 101 ± 3.42% | – |
| 17.4 ± 2.72 µM | 242 to 245 °C | – | CC1C(O)CC23CCC4(C)C5(C)CCC6C(C)(C)C(=O)C=CC6(C)C5C5OC5C4(OC2=O)C3C1C (stereo not drawn) [Compound 18, 3-oxo-21β-hydroxyl-11β,12β-epoxyl-urs-1-ene-13β,28β-lactone] | 103 ± 3.26% | – |
| > 100 µM | 261 to 265 °C | – | CC1C(O)CC23CCC4(C)C(C=CC5C6(C)CCC(=O)C(C)(C)C6CC(O)C54C)(OC2=O)C3C1C (stereo not drawn) [Compound 9, 3-oxo-7β,21β-dihydroxy-urs-11-en-13β,28β-lactone] | 104 ± 3.86% | did not showcase any suppression capabilities; also recorded: did not exhibit any inhibitory activities |
